# Assay results published in PMC10017155 (Aging and Disease, 2023).
# Entries after “also recorded” stand apart in the source; their conditions may differ. Peptide text beside a SMILES is read from it.
# Tests used:
# [1] = tested on: C. elegans CL2120; assay: Amyloid load by X-34 staining in C. elegans CL2120; assay type: in vivo
# Description: (§1) C. elegans CL2120 (dvIs14 [(pCL12) unc-54::beta 1-42 +(pCL26) mtl-2::GFP]) and C. elegans CL2122 (dvIs15 [(pPD30.38) unc-54(vector) + (pCL26) mtl-2::GFP]) strains were obtained from the Caenorhabditis Genetics Center. The worms were handled according to standard methods without FUDR [18]. E. coli OP50 bacteria were grown overnight in Luria-Bertani broth and 50µl were spread atop NGM or NGMZn plates. NGMZn has 20μM ZnSO4. Seeded plates were incubated at 30°C for ~16 hours and then for 1-2 hours at 15 or 25°C before worms were transferred. Lifespan and paralysis experiments (see below) were performed at 25°C for enhanced expression of Aβ. This temperature is standard when studying the effects of Aβ on C. elegans CL2120 strain [19].
# (§2) Nematodes were purified from unwanted microflora by the alkaline hypochlorite method, grown to the L4 stage at 15°C on NGM plates with bacterial lawn. […] Further, all contents were transferred to Petri plates with NGM or NGMZn with OP50 and placed in a temperature-controlled incubator at 25°C. Next day, worms were transferred onto similar media with a bacterial substrate and the lifespan was determined at 25°C (Supplementary Tables 3, 4).
# Post-hoc analysis was performed with the Tukey test.
# Figure 2.
# [2] = tested on: C. elegans CL2120; assay: Lifespan analysis, C. elegans CL2120; assay type: in vivo; conditions: for Mean survival: Aβ42 or isoD7-Aβ42 40 μM, HAEE 4 mM; for Increase/decrease in lifespan: vs control of same repeat
# Description: as §1, §2
# Lifespans were monitored at 25°C as described previously. All experiments were repeated at least three times and ≈130 worms were used for each experiment. Details regarding repeated experiments and amounts of animals used for experiments are summarized in Supplementary Tables 3, 4. In all cases, stage L4 worms were used at t = 0 for lifespan analyses and worms were transferred every other day to new agar plates. […] Escaped animals or animals with internal hatching were not included in lifespan calculation. Data was analyzed and Boltzmann sigmoid survival curves generated using the SciDAVis statistical analysis software package. Mean lifespans were compared in Microsoft Excel using the Student t test, applying one-tailed distribution and two-sample equal variance. All lifespan plots represent the composites of all independent experiments tabulated in Supplementary Tables 3, 4. Mean percentage change ±SD of lifespan after treatment, relative to untreated control are indicated in each graph in the same color as the curve.
# [3] = HAEE 4 mM + isoD7-Aβ42 40 µM, NGMZn, X-34
# [4] = CL2120, NGM (no Zn), replicate 1
# [5] = CL2120, NGM (no Zn), replicate 2
# [6] = CL2120, NGM (no Zn), replicate 3
compound,measurement,setting,value
"CC(=O)N[C@@H](Cc1c[nH]cn1)C(=O)N[C@@H](C)C(=O)N[C@@H](CCC(=O)O)C(=O)N[C@@H](CCC(=O)O)C(N)=O [HAEE, Ac-HAEE-NH2] (Ac-HAEE-NH2)",Effect of HAEE on isoD7-Aβ42/Zn2+-induced amyloidosis,[1]; [3],completely negated; also recorded: abrogates this pathological process; also recorded: fails to induce amyloidosis
same,Number of plaques and plaque area,[1]; [3],reduced back to the untreated group values
same,Effect on endogenous amyloidosis in untreated transgenic C. elegans,[1]; HAEE alone,did not affect the endogenous amyloidosis
same,Effect of HAEE itself on lifespan,"[2]; CL2120, HAEE 4 mM",no effect
same,Mean survival,"[2]; CL2120, NGM (no Zn), 25°C, mean ± SD of 3 experiments",8.83 ± 0.31 days
same,50% survival,[2]; [4],8.5 days
same,50% survival,[2]; [5],8.9 days
same,50% survival,[2]; [6],9.1 days
same,Mean increase/decrease in lifespan,"[2]; CL2120, NGM (no Zn), vs control NGM, mean ± SD of 3 experiments",1.53±0.63%
same,Increase/decrease in lifespan,[2]; [4],1.19%
same,Increase/decrease in lifespan,[2]; [5],1.14%
same,Increase/decrease in lifespan,[2]; [6],2.25%
same,Effect on lifespan,"[2]; CL2120, NGM, without Zn2+, 25°C",do not affect
same,Mean survival,"[2]; CL2120, NGMZn (ZnSO4 20 μM), 25°C, mean ± SD of 3 (isoD7-Aβ42: 5) experiments",9.2 ± 0.7 days
same,Effect of HAEE on lifespan shortened by isoD7-Aβ42 + Zn2+,"[2]; CL2120, NGMZn, HAEE 4 mM + isoD7-Aβ42 40 μM",removes the negative effect; also recorded: completely restored the shortened lifespan
same,50% survival,"[2]; CL2120, NGMZn, replicate 1",9.3 days
same,50% survival,"[2]; CL2120, NGMZn, replicate 2",9 days
same,50% survival,"[2]; CL2120, NGMZn, replicate 3",9.3 days
same,Mean increase/decrease in lifespan,"[2]; CL2120, NGMZn, vs control NGMZn, mean ± SD of 3 (isoD7-Aβ42: 5) experiments",1.85 ±0.66%
same,Increase/decrease in lifespan,"[2]; CL2120, NGMZn, replicate 1",1.09%
same,Increase/decrease in lifespan,"[2]; CL2120, NGMZn, replicate 2",2.27%
same,Increase/decrease in lifespan,"[2]; CL2120, NGMZn, replicate 3",2.20%
